Data on 2 compounds can be found in US6949679B1, “Polyamine transport inhibitors” (Universite Laval, priority 1998, dated 2005).

One data set deals with ZR-75-1 cells. Nature of the data set: Effect on ZR-75-1 cell proliferation (11 days, DNA content). It is filed as cell-based, human. As for the experimental part:
For growth studies, ZR-75-1 cells were cultured in MEZR medium or in phenol red-free RPMI 1640 supplemented with 2 mM L-glutamine, 1 mM sodium pyruvate, 15 mM Hepes, antibiotics, 1 nM 17β-estradiol, 0.5 μg of bovine insulin per ml and 5% (v/v) charcoal-treated fetal bovine serum (SD medium), as indicated in the text. When polyamines or polyamine analogs were added to serum-containing media, 1 mM aminoguanidine was added to inhibit bovine serum amine oxidase (BSAO) activity (Morgan, D. M. L. 1989, in The Physiology of Polyamines (Bachrach, U., and Heimer, Y. M. eds) Vol. I, pp. 203-229, CRC Press, Boca Raton). The effect of the transport inhibitors on cell growth was measured by incubating ZR-75-1 cells for 11 days in medium supplemented with antagonist, polyamines and/or 1 mM DFMO as indicated, followed by colorimetric determination of DNA content with 3,4-diaminobenzoic acid (Simard, J., Dauvois, S., Haagensen, D. E., Lėvesque C., Mėrand, Y. and Labriė, F. 1990. Endocrinology 126: 3223-3231). Medium was changed every other day in these experiments because of the slow reaction of the compound with an unknown component present in the IMEM and RPMI 1640 medium formulation.
The biocompatibility of DESC, MESC, and DEASC was thus evaluated during a long-term (11-day) incubation with ZR-75-1 cells grown in RPMI 1640 containing 10% (v/v) FBS in the absence and presence of 1 mM aminoguanidine. […] Weak growth inhibition caused by the mixed MESC-cysteamine disulfide, however, apparently involved degradation by a copper amine oxidase.

The next data set deals with polyamine transporter. Kind of data set: Inhibition of [14C]spermine uptake in ZR-75-1 cells. It is filed as cell-based, human. As for the experimental part: The rate of putrescine and spermidine transport was determined in ZR-75-1 cells incubated in serum-free RPMI 1640 medium as described (Lessard, M., Zhao, C., Singh, S. M. and Poulin, R. 1995. J. Biol. Chem. 270: 1685-1694), using [^3H]putrescine (30 Ci/mol) and [^3H]spermidine (20 Ci/mol), respectively as substrates for a 20 minute-assay period. […] Uptake activity was expressed per amount of DNA as fluorometrically determined using 3,4-diaminobenzoic acid (Simard, J., Dauvois, S., Haagensen, D. E., Lėvesque, C., Mėrand, Y. and Labrie, F. 1990. Endocrinology, 126: 3223-3231). For the determination of spermidine uptake activity in CHO-K1 cells, 80% confluent cell monolayers were rinsed twice with PBS and incubated for 20 minutes at 37° C. in 400 μl of buffer A (20 mM Tris-HCl, pH 7.4; 0.42 mM CaCl2; 0.41 mM MgSO4; 103 mM NaCl; 5.7 mM KCl; 1.1 mM D-glucose) containing 5 μM [^3H]spermidine (20 Ci/mol). Cell cultures were then washed twice with 1 ml PBS containing 5.7 mM sym-norspermidine. Cells were then lysed with 200-μl aliquot of 1 N NaOH and incubated for 30 minutes at 60° C. After neutralization with 200 μl of 1 N HCl, radioactivity was determined from a 250-μl of the cell lysate by scintillation counting. Uptake activity was expressed per amount of total cellular protein as determined by the method of Bradford (Bradford, M. M. 1976. Anal. Biochem. 72: 248-254). Non-specific binding of radioactive substrate was similarly determined in parallel for both cell lines after a 15 second-incubation with 400 μl of ice-cold uptake solution.
Kinetic analysis of polyamine transport was performed by determining uptake activity in the presence of a 3 μM [^3H]putrescine or 1 μM [^3H]spermidine plus increasing concentrations of nonradioactive substrate. K[…] Ki and Vmax values were then estimated by Lineweaver-Burke analysis. For competitive inhibitors, Ki values were also estimated by measuring uptake activity in the presence of logarithmically increasing concentrations of antagonist, and using the Cheng-Prusoff equation (Cheng, Y.-C. and Prusoff, W. H. 1973. Biochem. Pharmacol. 22: 3099-3108) by iterative curve fitting for a sigmoidal curve. For mixed competitive/noncompetitive inhibition, two methods were used to calculate kinetic constants. First, the equation [drawing 2] where v, s, and i are the transport velocity, substrate concentration and inhibitor concentration respectively, was used to calculate the inhibition constants for inhibitor/carrier complex formation (Ki) and carrier/inhibitor/substrate complex formation (Ki′) (Dixon, M. and Webb, E. C. 1976. Enzymes, 3rd Ed., Academic Press, San Diego, Calif.). Alternatively, the value of Ki for a mixed competitor/non-competitor was estimated from the intersect of equations v^−1 vs i at two different substrate concentrations (Dixon, M. and Webb, E. C. 1976. Enzymes, 3rd Ed., Academic Press, San Diego, Calif.). Intracellular Accumulation
In order to evaluate the effectiveness of dimeric triamines as polyamine transport inhibitors, we synthesized N,N′-bis(3-aminopropyl),N,N′-bis(4-aminobutyl)cystamine or BABAC (structure 1, FIG. 25; FIG. 31), and its thiol form N-(3-aminopropyl),N-(4-aminobutyl)cysteamine or AAC (FIG. 31) according to Scheme 4 described above (FIG. 30), using spermidine as a precursor polyamine. The ability of BABAC and AAC to inhibit the intracellular uptake of radio-labeled putrescine and spermidine in the ZR-75-1 human breast cancer cell line was then determined according to standard published procedures (Lessard, et al. and Poulin, et al.) Briefly, ZR-75-1 cells were grown for four days in twenty-four well plates in RPMI 1640 medium supplemented with 10% fetal bovine serum.

[1] abbreviates: this work, read-out: Km or Ki, spermine transport.

Structures are written as SMILES. Like-named read-outs stand apart in the source and are kept apart here.

As for `NCCCNCCCC(NCCCN)C(=O)NCCSSCCNC(=O)C(CCCNCCCN)NCCCN` (stereo not shown) [DESC, 2,2′-dithiobis(N-ethyl-spermine-5-carboxamide)], the “Effect on cell growth” value in the data set on ZR-75-1 cells (50 μM, with or without 1 mM aminoguanidine) is “only mildly growth inhibitory”; in the data set with ZR-75-1 cells (200 μM) it was “abrupt, aminoguanidine-resistant increase in toxicity”. In addition, the Ki with polyamine transporter (FIG. 32, read-out: Apparent Ki, spermine uptake) came out at 7.5 µM; in the data set on polyamine transporter (setting [1]), 5 ± 0.7 µM.
Consider `NCCCNCCCC(NCCCN)C(=O)NCCS` (stereo not shown) [MESC, N-(2-mercaptoethyl)spermine-5-carboxamide], for which the “Decrease in cell growth” value in the data set with ZR-75-1 cells (200 μM, not blocked by aminoguanidine) was determined as 35%. Besides, in the data set on polyamine transporter (FIG. 2), the “Ki for [14C]spermine transport, fold higher than that of DESC” value is reported as roughly 16 fold. Besides, the Ki in the data set on polyamine transporter (setting [1]) worked out at 80 ± 31 µM.
